For orientation: melting point means the temperature of the solid-liquid transition.

In turn, `CSc1nc(CC2CCN(c3ccc(F)cc3)CC2)nc(C(=O)NCC(=O)O)c1O` had a melting point of 228 to 230 °C.
In the case of `COC1CC(C)(C)C(OC(=O)c2ccccc2)C(OC(=O)c2ccccc2)C=C1C` (stereo not given), the melting point was in the range of 78 to 80 °C.
In the case of `CCOC(=S)c1c(CC)nc(C)nc1NCCc1ccc(OC)c(OC)c1`, the melting point lay in the range of 52 to 53 °C.
For `Cc1cc(-n2cc(-c3ccc(S(C)(=O)=O)cc3)nc2C)cc2ccc(=O)[nH]c12` the value was 345 to 347 °C; for `CC(=O)OCC1OC(OCCBr)C(OC(C)=O)C(OC(C)=O)C1OC(C)=O` (stereo not given), 116 to 117 °C.
The compound `CCOC(=O)c1c(N2CCN(c3ccccc3)CC2)n[nH]c1C` returned a melting point of 137 to 138 °C.
For `CCCc1c(OCCCOc2ccc([C@H]3OC(=O)C[C@H]3C)cc2)ccc(C(C)=O)c1O` the value was 88.5 to 89.5 °C; for `C=CCN(CC)C(=O)n1cnc(S(=O)(=O)CC)n1`, 39 to 41.5 °C.
For `O=C(O)C(=O)NCCCCCC1CCSS1` (stereo not given) the value was 75 to 79 °C; for `O=CN(Cc1ccccn1)C1(c2ccc(-c3ccccc3)cc2)CCC1`, 101 °C.
For `O=C(N[C@H](Cc1ccccc1)C(=O)O)C1CCCC1` the value was 102 to 104 °C.
Regarding `CNc1ccc(C#Cc2cncc(-c3nc(NC)nc4cc(OC)c(OC)cc34)c2)cn1`, the melting point is 160 to 162 °C.
For the compound `C[C@@H](n1cnc2cc(N)ccc2c1=O)[C@](O)(Cn1cncn1)c1ccc(F)cc1F`, the melting point is 103 to 109 °C.
The same measure for `COc1cc(C(C)=O)cc(Br)c1Oc1nc(C)nc(N2CCOCC2)n1`: 159 to 162 °C; for `C=Cc1ccc(S(=O)(=O)Nc2ncnc(Cl)c2Cc2c(OC)cccc2OC)cc1`: 197 to 198 °C.
With `O=C(O)CN(C(=O)Cc1ccc(Cl)c(Cl)c1)[C@H](CN1CC[C@H](O)C1)c1ccccc1`, the melting point lay in the range of 162 to 164 °C.
For `COC(=O)C[C@H](O)CC(=O)C=Cc1c(-c2ccc(F)cc2)c(-c2ccc(F)cc2)c(C(=O)Nc2ccc(S(N)(=O)=O)cc2)n1C(C)C` the value was 109 to 110 °C; for `COc1cccc([C@H]2O[C@H](CC(=O)Nc3ccsc3C(=O)O)C(=O)N(CC(C)(C)CO)c3ccc(Cl)cc32)c1OC`, 154 to 155 °C.
In turn, `Cc1ccc(Nc2nc(Cl)nc(NC3CCCCCC3)n2)cc1F` had a melting point of 149 °C.
With `CC(=O)N1CCc2c(Br)ccc([N+](=O)[O-])c2C1`, the melting point was 159 to 161 °C.
For `COc1ccc(Nc2nc(NC3CCCCCC3)nc(N(C)C3CCN(C)CC3)n2)cc1Cl` the value was 173 to 176 °C; for `Cc1cc(C(O)c2ccccc2)sc1C` (stereo not given), 79 to 80 °C; for `CNc1ccc(C#N)cc1`, 85 to 87 °C.
The same measure for `CCc1ccsc1C(=O)O`: 106 to 109 °C.
Compound `CCCCc1ccc(S(=O)(=O)Nc2cc(C)on2)s1` displayed a melting point of 96.5 to 101 °C.
As for `Cc1cc(Cn2nnc(C(N)=O)c2N)ccc1C(=O)c1ccccc1`, the melting point fell in the range of 181 to 182 °C.
Compound `N#Cc1cc2sccc2nc1I` gave a melting point of 190 to 191 °C.
`Cc1cc(C(=O)N2Cc3cccn3Cc3ccccc32)ccc1C1=CCC2CC1C2(C)C` (stereo not given) registered a melting point of 139 to 140 °C.
The same measure for `CC(=O)N[C@@H]1[C@H](O)CC(C(=O)O)=C[C@H]1OC(C)C`: 64 to 65 °C; for `CCCCN(CCCC)c1ccc(C(=O)c2ccccc2C(=O)O)cc1`: 171 to 172 °C; for `CC(C)c1c(Cl)nc(NC=O)nc1Cl`: 95 to 96 °C.
For `CN(Cc1sc2c(=O)c(C(=O)NCc3ccc(Cl)cc3)cn(C)c2c1CN)C[C@@H](O)c1ccccn1` the value was 144 to 148 °C.
`Clc1nc(SCc2cccc3ccccc23)nc2c1CCN2` returned a melting point of 107 to 110 °C.
The compound `CCCN(CCC)c1c(CC)nn2c(-c3c(C)cc(C)cc3OC)cccc12` yielded a melting point of 72.3 to 74.6 °C.
The same measure for `O=c1[nH]c(=O)n(CCCCBr)c2cc(Cl)ccc12`: 180 to 182 °C; for `COc1ccc(C[C@H](NC(=O)[C@H](CC(C)C)NC(=O)OCc2ccccc2)C(=O)CSC)cc1`: 100 to 101 °C.
Compound `O=C(O)CCc1cc(Cl)ccc1C(=O)O` registered a melting point of 156 to 158 °C.
For `COC(=O)C(C#N)c1ccccc1[N+](=O)[O-]` (stereo not given) the value was 58 to 60 °C; for `O=C(O)c1ccc(CF)cc1`, 192 to 194 °C; for `CCCCCCCCCCCCCCCCOc1cc(C(=O)O)c(O)c2ccccc12`, 121 to 124 °C.
In the case of `C=CCNC(=O)NNC(=O)c1cccnc1`, the melting point was in the range of 165 to 167 °C.
As for `CCCCCCc1cc(-c2cccs2)n[nH]1`, the melting point lay in the range of 53 to 55 °C.
Compound `CCCCN(CCCC)c1cc(=O)n(-c2ccc(S(=O)(=O)O)cc2)[nH]1` had a melting point of 267 to 269 °C.
For `COc1c(O)ccc(C(=O)c2ccccc2)c1[N+](=O)[O-]` the value was 169 to 171 °C.
The same measure for `CN(C)C(=O)c1ccc(Nc2nc(OCC3CCCCC3)c3nc[nH]c3n2)cc1`: 184 to 186 °C.
In turn, `COc1cc2c(c(OC)c1OC)-c1cc(I)c(O)cc1[C@@H](NC(C)=O)CC2` displayed a melting point of 210 °C.
For `O=C(O)C=C1CCC(n2nc(-c3c(-c4ccccc4)nn4ccccc34)ccc2=O)CC1` (stereo not given) the value was 188 to 190 °C; for `Cc1noc(C)c1S(=O)(=O)n1c(=O)oc2ccccc21`, 133 to 135 °C.
For `Fc1ccc2sc(-c3ccc(CBr)cc3)nc2c1` the value was 138 to 141 °C; for `CCCNC(=O)NS(=O)(=O)c1cc2c(cc1OC)OCCC2CNC(=O)c1cc(Cl)ccc1OC` (stereo not given), 159 to 160 °C.
The same measure for `Cc1ccc(-c2cc(C(F)F)nn2-c2ccc(S(N)(=O)=O)c(F)c2)cc1Cl`: 160 to 161 °C; for `CCCC(=O)c1cnc2c(C(N)=O)cccc2c1Nc1ccccc1C`: 185 to 187 °C; for `COc1cc2ncnc(N3c4ccccc4CC3C)c2cc1OC` (stereo not given): 154 to 156 °C.
In the case of `NC(=O)c1ccc(F)c2c1OCC(N)C2` (stereo not given), the melting point turned out to be 128 °C.
The same measure for `CC(Cn1ccnc1)Cn1c(=O)c2ccc(Cl)cc2n(C)c1=O` (stereo not given): 206 to 209 °C; for `COc1ccc(-c2ocnc2-c2cc(OC)c(N)c(OC)c2)cc1O`: 126 to 130 °C; for `O=S(=O)(c1ccc(Cl)c(CBr)c1Cl)N1CC[C@H](O)C1`: 120 °C.
On to `CC(C)(C)OC(=O)ON=C(c1ccccc1)c1ccccc1`, for which the melting point was in the range of 126 to 133 °C.
For `C=CCOc1cc(-n2c(OC)nc(C(F)(F)C(F)(F)F)cc2=O)c(F)cc1Cl` the value was 82 to 83 °C; for `NC(=O)N=C1SCCN1Cc1ccccc1`, 143 to 145 °C.
Take `Cc1ccc(C(=O)Nc2ccc(NCC(C)O)c(C(F)(F)F)c2)cc1Nc1nccc(-c2cccnc2)n1` (stereo not given): the melting point was 184 to 186 °C.
`C=CCOC(=O)C1=C(C)NC(C)=C(C(=O)OC(C)C)C1c1cccc([N+](=O)[O-])c1` (stereo not given) had a melting point of 96 to 97 °C.
With `CC(C)Oc1ccc2c(O)c(C(=O)NCCO)nc(Cl)c2c1`, the melting point is 102 to 104 °C.
For `N#Cc1cccn1-c1ccc(CN2C(=O)c3ccccc3C2=O)cc1` the value was 167 to 168 °C; for `CS(=O)(=O)OC1CN(C(c2ccccc2)c2ccccc2)C1`, 85 to 87 °C; for `CN1CC2CC1CN2c1cncc(Cl)n1` (stereo not given), 125 to 126 °C.
`Cn1nc(-c2ccc(O)cc2)ccc1=O` registered a melting point of 242 to 245 °C.
The compound `CN(C)C(=O)N1CCC(C(=O)N(CCCN2CCC(Cc3ccccc3)CC2)c2ccc(Cl)c(Cl)c2)CC1` returned a melting point of 109 to 112 °C.
The same measure for `COc1ccc(-c2c(C)ccn2-c2ccc(S(C)(=O)=O)cc2)cc1`: 131 to 132 °C.
As to `CC(=O)N1CCc2cc(CC(C)NCCOc3ccccc3OCC(F)(F)F)cc(C#N)c21` (stereo not given), the melting point was in the range of 57 to 59 °C.
For `O=C1N(Cc2nc3ncccc3o2)c2ccccc2C12COc1cc3c(cc12)OCO3` (stereo not given) the value was 202 to 204 °C; for `C[Si](C)(C)C#Cc1ccc2c(C(=O)Nc3cccc(C(F)(F)F)c3)cccc2c1`, 134 to 136 °C.
The same measure for `Cn1c(C(F)(F)F)ccc(-c2cc(S(=O)(=O)Cl)c(Cl)cc2F)c1=O`: 77 to 78 °C.
In turn, `COc1ccc2c(c1)CCC(n1cc[nH]c1=S)C2` (stereo not given) yielded a melting point of 226 to 227 °C.
For `CCCCCCCCCCCCc1nnn(C(CCCCCCCCCCCC)C(=O)Nc2c(OC)cc(OC)cc2OC)n1` (stereo not given) the value was 138 to 140 °C; for `CCCCSc1cc(C(=O)O)cc(S(N)(=O)=O)c1Oc1ccccc1`, 222 to 224 °C.
The same measure for `Cc1c(CON2C(=O)c3ccccc3C2=O)ncn1C(c1ccccc1)(c1ccccc1)c1ccccc1`: 220 to 223 °C; for `N#Cc1cccc(NCC(=O)Nc2c(Cl)ccc3nc(N4CC[C@@H](O)C4)ccc23)c1`: 254 to 256 °C.
In turn, `CC(C(=O)Nc1ccc2c(c1)OCO2)N1CCN(c2ccccn2)CC1` (stereo not given) showed a melting point of 189 to 191 °C.
For `CN(C)C(=O)COc1cc(Cl)ccc1C(=O)NCCN1CCN(C(=O)OC(C)(C)C)CC1`, the melting point lay in the range of 139 to 140 °C.
The compound `CC1(c2cccc(F)c2C(=O)NCCCl)CCC1` had a melting point of 108 to 110 °C.
`COCc1c(C)c(C(C)(C)C)cc(C(C)(C)C)c1O` showed a melting point of 70 °C.
`CC1(C)C=C(C(O)CN)c2ccccc21` (stereo not given) returned a melting point of 93 °C.
`CCCCCCCc1ccc(C(=O)Cc2cccc(C#N)c2)cc1` had a melting point of 68 °C.
As for `CC(C)(C)c1cccc2c1OC(CNC(=O)OCc1ccccc1)C2` (stereo not given), the melting point fell in the range of 73 to 76 °C.
For `CCOC(=O)c1c(-c2ccccc2C)c2cc(Cl)ccc2oc1=O` the value was 65 to 66 °C; for `O=c1c2cc([N+](=O)[O-])ccc2cc2n1CCCS2(=O)=O`, 242 to 244 °C.
`O=C(O)C=CC(F)(F)F` registered a melting point of 95 to 100 °C.
For `COC(=O)c1nc(-c2ccc(C(F)(F)F)cc2)nc(N)c1Cl` the value was 204 to 205 °C.
For `CCNc1c(C#N)cnn1-c1c(F)c(F)c(C(F)(F)F)c(F)c1F` the value was 168 °C.

The values are drawn from a melting point compilation (Tetko et al.; mined from patent text by program, amines drawn as free bases though some values may be those of a salt).
